Patent publication US10829473B2, “Modulators of the cystic fibrosis transmembrane conductance regulator protein and methods of use” (AbbVie Overseas S.Á.R.L., priority 2017, dated 2020)
Where two headings read alike, the source gives them in different places.

Molecular target: T1, F508delCFTR (Homo sapiens, UniProt P13569, DEL508-508)
T1 construct: expressed in transfected cells; host or cells: CFBE41o- human lung derived epithelial cells (CFBE41o-F508delCFTR-HRP), doxycycline-inducible
Experiment: Cell Surface Expression-Horse Radish Peroxidase (CSE-HRP) Assay;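 as to EC50 (with co-corrector): co-corrector chromenyl benzoic acid corrector at 2 or 3 µM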;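 as to Maximum % activity (without co-corrector): % of on-plate positive control chromenyl benzoic acid corrector at 2 or 3 µM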
Assay type: cell-based
Conditions: for Maximum % activity (with co-corrector) / Emax: maximum at any tested concentration; for Emax: read-out: Maximum % activity (without co-corrector)
Outline: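 Corrector compounds were given as 8-point 3-fold series from 20 or 30 μM, with or without a 2 μM co-corrector, for 18-24 h at 33 °C. Surface HRP was read by luminol luminescence as % of positive control; variable-Hill-slope sigmoidal fitting gave EC50 from triplicate plates.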

[1] = test compound with co-corrector
[2] = test compound with co-corrector, read-out: EC50 (with co-corrector)
[3] = test compound without co-corrector
[4] = test compound without co-corrector, read-out: EC50 (without co-corrector)

T1 sequence (P13569 with tags, fused parts or gaps DEL508-508): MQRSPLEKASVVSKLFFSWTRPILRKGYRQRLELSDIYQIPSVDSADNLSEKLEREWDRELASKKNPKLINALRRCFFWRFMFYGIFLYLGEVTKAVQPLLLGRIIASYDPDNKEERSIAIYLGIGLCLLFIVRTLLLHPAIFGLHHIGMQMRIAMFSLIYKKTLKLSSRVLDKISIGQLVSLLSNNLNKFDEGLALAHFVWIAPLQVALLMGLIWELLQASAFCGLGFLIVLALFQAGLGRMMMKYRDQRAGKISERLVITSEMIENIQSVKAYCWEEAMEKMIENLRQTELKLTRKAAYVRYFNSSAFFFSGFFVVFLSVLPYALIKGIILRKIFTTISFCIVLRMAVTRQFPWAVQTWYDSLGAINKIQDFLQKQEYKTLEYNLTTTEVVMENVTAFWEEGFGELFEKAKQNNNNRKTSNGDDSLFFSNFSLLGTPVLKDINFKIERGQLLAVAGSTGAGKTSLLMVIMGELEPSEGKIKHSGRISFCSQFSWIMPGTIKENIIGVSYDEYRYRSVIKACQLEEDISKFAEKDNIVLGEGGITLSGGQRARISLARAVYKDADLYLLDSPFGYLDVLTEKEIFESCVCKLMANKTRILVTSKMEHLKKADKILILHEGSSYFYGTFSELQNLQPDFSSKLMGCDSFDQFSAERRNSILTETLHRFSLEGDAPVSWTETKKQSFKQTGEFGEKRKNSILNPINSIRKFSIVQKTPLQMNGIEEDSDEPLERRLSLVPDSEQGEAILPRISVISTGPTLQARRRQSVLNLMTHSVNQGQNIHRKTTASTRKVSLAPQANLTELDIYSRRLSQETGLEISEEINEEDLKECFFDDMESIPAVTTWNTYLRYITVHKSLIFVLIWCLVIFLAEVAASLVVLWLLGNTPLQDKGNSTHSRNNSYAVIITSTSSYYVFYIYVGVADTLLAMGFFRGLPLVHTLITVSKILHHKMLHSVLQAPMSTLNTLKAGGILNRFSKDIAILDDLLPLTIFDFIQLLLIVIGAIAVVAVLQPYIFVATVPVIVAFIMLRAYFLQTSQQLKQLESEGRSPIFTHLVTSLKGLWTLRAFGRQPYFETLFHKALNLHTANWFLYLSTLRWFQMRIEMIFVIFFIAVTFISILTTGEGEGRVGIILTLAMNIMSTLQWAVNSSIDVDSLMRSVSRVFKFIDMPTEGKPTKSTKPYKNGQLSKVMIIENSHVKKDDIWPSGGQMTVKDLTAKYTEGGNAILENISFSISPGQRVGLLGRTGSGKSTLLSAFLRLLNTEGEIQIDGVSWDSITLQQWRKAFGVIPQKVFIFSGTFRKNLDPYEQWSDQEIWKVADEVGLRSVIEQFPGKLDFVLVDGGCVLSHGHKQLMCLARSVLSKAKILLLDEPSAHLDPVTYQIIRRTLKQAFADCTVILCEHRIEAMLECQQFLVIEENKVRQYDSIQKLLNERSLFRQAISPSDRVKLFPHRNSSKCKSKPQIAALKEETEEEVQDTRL

SMILES	Maximum % activity (with co-corrector) [1]	EC50 [2]	Emax [3]	EC50 [4]
COCCOc1ncc(C2CCC2)cc1C1(C(=O)NS(=O)(=O)c2cccc3[nH]ccc23)CC1 [Example GI-99, 1-[5-cyclobutyl-2-(2-methoxyethoxy)pyridin-3-yl]-N-(1H-indole-4-sulfonyl)cyclopropane-1-carboxamide]	+++ (≥350)	< 3 µM	> 150%	< 3 µM
O=C(NS(=O)(=O)c1cccc2ncccc12)C1(c2cc(C3CCC3)cnc2OCC2CC2)CC1 [Example GI-100, 1-[5-cyclobutyl-2-(cyclopropylmethoxy)pyridin-3-yl]-N-(quinoline-5-sulfonyl)cyclopropane-1-carboxamide]	+++ (≥350)	< 3 µM	> 150%	< 3 µM
Cc1cnc(OCC2CC2)c(C2(C(=O)NS(=O)(=O)c3cccc4nc(C)ccc34)CC2)c1 [Example GI-101, 1-[2-(cyclopropylmethoxy)-5-methylpyridin-3-yl]-N-(2-methylquinoline-5-sulfonyl)cyclopropane-1-carboxamide]	+++ (≥350)	< 3 µM	> 150%	3 to 10 µM
CCc1cnc(N2CCC(OC(C)C)CC2)c(C2(C(=O)NS(=O)(=O)c3cccc4[nH]ccc34)CC2)c1 [Example GI-102, 1-(5-ethyl-2-{4-[(propan-2-yl)oxy]piperidin-1-yl}pyridin-3-yl)-N-(1H-indole-4-sulfonyl)cyclopropane-1-carboxamide]	+++ (≥350)	< 3 µM	> 150%	3 to 10 µM
CC(C)OC1CCN(c2ncc(C3CCC3)cc2C2(C(=O)NS(=O)(=O)c3cccc4[nH]ccc34)CC2)CC1 [Example GI-104, 1-(5-cyclobutyl-2-{4-[(propan-2-yl)oxy]piperidin-1-yl}pyridin-3-yl)-N-(1H-indole-4-sulfonyl)cyclopropane-1-carboxamide]	+++ (≥350)	< 3 µM	> 150%	< 3 µM
CC(C)OC1CCN(c2ncc(C3CCC3)cc2C2(C(=O)NS(=O)(=O)c3cccc4ncccc34)CC2)CC1 [Example GI-105, 1-(5-cyclobutyl-2-{4-[(propan-2-yl)oxy]piperidin-1-yl}pyridin-3-yl)-N-(quinoline-5-sulfonyl)cyclopropane-1-carboxamide]	+++ (≥350)	< 3 µM	> 150%	< 3 µM
CCc1cnc(OCC2CC2)c(C2(C(=O)NS(=O)(=O)c3cccc4ncccc34)CC2)c1 [Example GI-106, 1-[2-(cyclopropylmethoxy)-5-ethylpyridin-3-yl]-N-(quinoline-5-sulfonyl)cyclopropane-1-carboxamide]	+++ (≥350)	< 3 µM	> 150%	< 3 µM
CCc1cnc(OCC2CC2)c(C2(C(=O)NS(=O)(=O)c3cccc4nc(C)ccc34)CC2)c1 [Example GI-107, 1-[2-(cyclopropylmethoxy)-5-ethylpyridin-3-yl]-N-(2-methylquinoline-5-sulfonyl)cyclopropane-1-carboxamide]	+++ (≥350)	< 3 µM	> 150%	< 3 µM
CCc1cnc(OCC2CC2)c(C2(C(=O)NS(=O)(=O)c3cccc4[nH]ccc34)CC2)c1 [Example GI-108, 1-[2-(cyclopropylmethoxy)-5-ethylpyridin-3-yl]-N-(1H-indole-4-sulfonyl)cyclopropane-1-carboxamide]	+++ (≥350)	< 3 µM	> 150%	< 3 µM
CCc1cnc(OCCOC)c(C2(C(=O)NS(=O)(=O)c3cccc4[nH]ccc34)CC2)c1 [Example GI-109, 1-[5-ethyl-2-(2-methoxyethoxy)pyridin-3-yl]-N-(1H-indole-4-sulfonyl)cyclopropane-1-carboxamide]	+++ (≥350)	< 3 µM	> 150%	3 to 10 µM
Cc1ccc2c(S(=O)(=O)NC(=O)C3(c4cc(C5CCC5)cnc4OCC4CC4)CC3)cccc2n1 [Example GI-110, 1-[5-cyclobutyl-2-(cyclopropylmethoxy)pyridin-3-yl]-N-(2-methylquinoline-5-sulfonyl)cyclopropane-1-carboxamide]	+++ (≥350)	< 3 µM	> 150%	< 3 µM
COCCOc1ncc(C2CCC2)cc1C1(C(=O)NS(=O)(=O)c2cccc3ncccc23)CC1 [Example GI-111, 1-[5-cyclobutyl-2-(2-methoxyethoxy)pyridin-3-yl]-N-(quinoline-5-sulfonyl)cyclopropane-1-carboxamide]	+++ (≥350)	< 3 µM	> 150%	< 3 µM
CCc1cnc(OCCOC)c(C2(C(=O)NS(=O)(=O)c3cccc4ncccc34)CC2)c1 [Example GI-112, 1-[5-ethyl-2-(2-methoxyethoxy)pyridin-3-yl]-N-(quinoline-5-sulfonyl)cyclopropane-1-carboxamide]	+++ (≥350)	< 3 µM	> 150%	3 to 10 µM
Cc1ccc2c(S(=O)(=O)NC(=O)C3(c4cc(C5CCC5)cnc4N4CCC(OC(C)C)CC4)CC3)cccc2n1 [Example GI-113, 1-(5-cyclobutyl-2-{4-[(propan-2-yl)oxy]piperidin-1-yl}pyridin-3-yl)-N-(2-methylquinoline-5-sulfonyl)cyclopropane-1-carboxamide]	+++ (≥350)	< 3 µM	> 150%	< 3 µM
CCOc1ncc(C2CCC2)cc1C1(C(=O)NS(=O)(=O)c2cccc3ncccc23)CC1 [Example GI-114, 1-(5-cyclobutyl-2-ethoxypyridin-3-yl)-N-(quinoline-5-sulfonyl)cyclopropane-1-carboxamide]	+++ (≥350)	< 3 µM	> 150%	3 to 10 µM
CCOc1ncc(C2CCC2)cc1C1(C(=O)NS(=O)(=O)c2cccc3nc(C)ccc23)CC1 [Example GI-115, 1-(5-cyclobutyl-2-ethoxypyridin-3-yl)-N-(2-methylquinoline-5-sulfonyl)cyclopropane-1-carboxamide]	+++ (≥350)	< 3 µM	> 150%	< 3 µM
CCOc1ncc(CC)cc1C1(C(=O)NS(=O)(=O)c2cccc3ncccc23)CC1 [Example GI-116, 1-(2-ethoxy-5-ethylpyridin-3-yl)-N-(quinoline-5-sulfonyl)cyclopropane-1-carboxamide]	+++ (≥350)	< 3 µM	> 150%	3 to 10 µM
CCOc1ncc(CC)cc1C1(C(=O)NS(=O)(=O)c2cccc3nc(C)ccc23)CC1 [Example GI-117, 1-(2-ethoxy-5-ethylpyridin-3-yl)-N-(2-methylquinoline-5-sulfonyl)cyclopropane-1-carboxamide]	+++ (≥350)	< 3 µM	> 150%	< 3 µM
